# Bridge positions count the residues as written; N and C are the ends. Square brackets hold non-standard residues; d marks the D form. Peptide text beside a SMILES is read from it. * marks the point of attachment. 2Nal = N[C@@H](Cc1ccc2ccccc2c1)C(=O)O; Benzoyl(4-F) = O=C(c1ccc(F)cc1)*; Cit = NC(=O)NCCC[C@H](N)C(=O)O
# How the values were obtained:
# [1] = system: PC3 cells; test: MIP3α secretion by PC3 cells (ELISA); assay type: cell-based
# Procedure: (§1) In this example, regulation of the chemokine MIP3α (macrophage inflammatory protein 3α) was examined. […] In FIG. 1B, PC3 (left panel) and PC3-CXCR4.5 (right panel) cells were stimulated with the indicated concentrations of CXCL12 for 48 hours and MIP3α secretion was assessed by ELISA. The results represent the average of triplicates±STDEV.
# (§2) The effects of the CXCR4 antagonist AMD3100 and of 4F-benzoyl-TN14003 (4FB-TN14003), hitherto known as a CXCR4 antagonist, on MIP3α secretion were further tested. […] In FIG. 1C, CXCR4 signaling in PC3 (left panel) and PC3-CXCR4.5 (right panel) cells was inhibited with anti-CXCL12 antibodies (αCXCL12) and Pertussis toxin (PTX) treatments alone or in combination with CXCL12, as indicated. Secretion of MIP3α was assessed by ELISA. The results represent the average of triplicates±STDEV.
# [2] = system: PC3-CXCR4.5 cells; test: MIP3α secretion by PC3-CXCR4.5 cells (ELISA); assay type: cell-based
# Procedure: as §1, §2
# [3] = system: human primary keratinocytes; test: Proliferation and survival of keratinocytes; assay type: cell-based; conditions: AMD-3100 20 μM; 4F-benzoyl-TN14003 4-20 μM
# Procedure: (§3) The effect of CXCR4 antagonists on the survival of freshly isolated normal CD4^+ T cells, CD34^+ stem cells and keratinocytes was examined. The proliferation and survival of keratinocytes was not inhibited by CXCR4 antagonists AMD-3100 (20 μM) and 4F-benzoyl-TN14003 (4-20 μM) or the natural ligand CXCL12 (FIG. 2C). The proliferation and survival of CD4^+ T cells was not inhibited by CXCR4 antagonists AMD-3100 (20 μM).
# [4] = system: human CD4+ T cells; test: Proliferation and survival of CD4+ T cells; assay type: cell-based; conditions: AMD-3100 20 μM; 4F-benzoyl-TN14003 4-20 μM
# Procedure: as §3
# [5] = system: PC3 cells; test: Proliferation of PC3 prostate tumor cells; assay type: cell-based
# Procedure: (§4) Next, the effect of the CXCR4 modulators on PC3 and PC3-CXCR4.5 prostate tumor cells was tested. […] The proliferation induced by 4F-benzoyl-TN14003 was dose-dependent (FIG. 3B).
# [6] = system: PC3-CXCR4.5 cells; test: Proliferation of PC3-CXCR4.5 prostate tumor cells; assay type: cell-based
# Procedure: as §4
# [7] = system: SKBR3; test: Proliferation of SKBR3 breast carcinoma cells; assay type: cell-based
# [8] = system: 22Rv1; test: Proliferation of 22Rv1 prostate carcinoma cells; assay type: cell-based
# [9] = system: U-87; test: Proliferation of U-87 glioblastoma cells; assay type: cell-based
# [10] = system: K562 cells; test: Proliferation and apoptosis (Annexin V) of CML K562 cells; assay type: cell-based, human; conditions: K562 (low CXCR4); 4F-benzoyl-TN14003 4-20 μM
# Excerpt: (§5) The proliferation and survival of the CML K562 cells or K562 cells that over-express CXCR4 (indicated “CXCR4 high” or “K562-CXCR4”) was first studied.
# [11] = system: K562-CXCR4; test: Proliferation and apoptosis (Annexin V) of K562 cells over-expressing CXCR4; assay type: cell-based, human; conditions: K562 high CXCR4; 4F-benzoyl-TN14003 4-20 μM
# Excerpt: as §5
# [12] = system: HL-60 cells; test: Proliferation and apoptosis (Annexin V) of HL-60 cells; assay type: cell-based, human
# [13] = system: NB4 cells; test: Proliferation of NB4 AML cells; assay type: cell-based, human
# [14] = system: ARH77; test: Proliferation and apoptosis (annexin) of ARH77 MM cells; assay type: cell-based, human; conditions: 4F-benzoyl-TN14003 0.4-40 μM
# [15] = system: U266; test: Proliferation and apoptosis (annexin) of U266 MM cells; assay type: cell-based, human; conditions: 4F-benzoyl-TN14003 0.4-40 μM
# [16] = system: NCI human MM cells; test: Proliferation and apoptosis (annexin) of NCI MM cells; assay type: cell-based; conditions: 4F-benzoyl-TN14003 0.4-40 μM
# [17] = system: Jurkat cells; test: Migration of Jurkat cells in response to CXCL12; assay type: cell-based, human; conditions: CXCL12 50 ng/ml; peptide incubated with Proteinase K
# Excerpt: AMD3100 was purchased from Sigma, Israel.
# [18] = system: BM derived CD138+ MM cells; test: Survival and apoptosis of BM derived cells of MM patients; assay type: cell-based, human
# [19] = system: BM derived CD34+ cells; test: Survival of CD34+ cells in BM samples of MM patients; assay type: cell-based, human; conditions: 8 μM, 24 hr
# [20] = system: U87 glioma cells; test: Survival and death of U87 glioma cells (Annexin V); assay type: cell-based
# Procedure: U87 cells were treated with 4F-benzoyl-TN14003 and tested for their survival (FIG. 15A) and death (FIG. 15B).
# [21] = system: human NB4 leukemic cells; test: NB4 leukemic xenograft model; assay type: in vivo, nude mice
# Procedure: Acute promyelocytic leukemia (APL)-derived NB4 cell is extensively used as an in vitro and in vivo model system for studying human leukemia. To investigate the therapeutic anti-tumor potential of the CXCR4 antagonist 4F-benzoyl-TN14003 against human leukemic cells, 10×10^6 NB4 cells were injected subcutaneously (s.c) into immunodeficient nude mice (n=5). After 14 days, tumors were established at the size of 0.4 cm^2, and mice were divided into 4F-benzoyl-TN14003-treated (8 mg/Kg, open squares) and PBS-treated (control, full diamonds) groups. The 4F-benzoyl-TN14003 drug solution was administered intraperitoneal (i.p) each day for 5 days, followed by 2 days without drug, and then 4 additional daily injections (total of 9 injections, FIG. 16).
# To further test the effect of 4F-benzoyl-TN14003 against human leukemic cells, 5×10^6 NB4 cells were injected subcutaneously (s.c) into immunodeficient nude mice (n=5). After 14 days, tumors were very small, at the size of 0.02 cm^2, and mice were divided into 4F-benzoyl-TN14003-treated (open squares) and PBS-treated (control, full diamonds) groups. The 4F-benzoyl-TN14003 drug solution was administered subcutaneously (8 mg/Kg) each day for 4 days (total of 4 injections, FIG. 17A). On day 20, all control mice developed tumors (0.49±0.1 cm^2), whereas in the treated mouse group, only 1 mouse developed a small tumor.
# On day 31, all control mice developed big tumors in size (FIG. 17A) and weight (FIG. 17B), whereas in the treated group, 4/5 mice developed smaller tumors in size and weight.
# [22] = system: K562L cells; test: K562L (luciferase) CML model, CCCD camera; assay type: in vivo, NOD/SCID mice
# Procedure: In order to monitor the progression and localization of leukemic cells in vivo, the human CML tumor cell lines K562 (K562L) was stably transduced with a retrovirus carrying the luciferase gene. This cell line was injected IP into NOD/SCID mice (2.5×10^5, 5×10^5, 10^6, 2×10^6 per mouse; FIGS. 18 A-D, respectively) that were pretreated with a sub-lethal dose of radiation in order to diminish any natural killer cell activity and enhance acceptance of the tumor cells. Twenty-four hr after injection of the cells, the light generated internally by the luciferase expressed in the tumor cells and then transmitted through the animal's tissues was monitored externally using a cooled charge-coupled device camera (CCCD). The substrate luciferin was provided exogenously via IP injection. […] Quantitation was achieved by integrating the signal intensity using the Metaview software.
# Two therapeutic approaches were studied using this model. […] In addition, the effect of 4F-benzoyl-TN14003 on the growth of cells in vivo was investigated.
# Further, the effect of 4F-benzoyl-TN14003 on K562L tumor development was studied. 4F-benzoyl-TN14003 was injected i.p into NOD/SCID mice in the amount of 4 mg/Kg per mouse/per injection. The first injection of 4F-benzoyl-TN14003 was given immediately after the injection of K562-luc cells in an opposite route of injection on the peritoneum. Further injections of 4F-benzoyl-TN14003 were given every three days. Mice were monitored under the CCCD camera, 24 hr after each injection at serial time points, every three days.
# 4F-benzoyl-TN14003 was injected i.p into NOD/SCID mice in the amount of 2 mg/Kg whereas AMD-3100 was injected 4 mg/Kg per mouse/per injection. The first injection was given 2 days after the injection of K562-luc cells. Further injections were given on days 5, 7 and 11. Mice (n=3) were monitored under the CCCD camera on day 17 after injection of cells.
# [23] = system: human CD34+ hematopoietic stem cells; conditions: AMD-3100 20 μM
molecule,measurement,setting,value
Pertussis toxin,MIP3α secretion,[1],effectively inhibited the secretion of MIP3α
same,MIP3α secretion,[2]; ELISA,secretion of MIP3α was decreased
same,MIP3α secretion,[2]; PTX in combination with CXCL12,did not demonstrate an inhibitory effect
"N=C(N)NCCC[C@H](NC(=O)[C@@H]1CSSC[C@H](NC(=O)[C@H](Cc2ccc3ccccc3c2)NC(=O)[C@H](CCCNC(=N)N)NC(=O)[C@H](CCCNC(=N)N)NC(=O)c2ccc(F)cc2)C(=O)N[C@@H](Cc2ccc(O)cc2)C(=O)N[C@@H](CCCNC(N)=O)C(=O)N[C@@H](CCCCN)C(=O)N[C@H](CCCCN)C(=O)N2CCC[C@H]2C(=O)N[C@@H](Cc2ccc(O)cc2)C(=O)N[C@@H](CCCNC(=N)N)C(=O)N[C@@H](CCCNC(N)=O)C(=O)N1)C(N)=O [4F-benzoyl-TN14003, 4F-benzoyl-Arg-Arg-Nal-Cys-Tyr-Cit-Lys-DLys-Pro-Tyr-Arg-Cit-Cys-Arg-NH2] ({Benzoyl(4-F)}-RR[2Nal]CY[Cit]K[dK]PYR[Cit]CR-NH2; disulfide 4-13)",MIP3α secretion,[2]; ELISA,induced in both cell lines MIP3α secretion in an agonist manner
same,proliferation and survival of keratinocytes,[3],not inhibited
same,proliferation and survival of CD4+ T cells,[4],induced T cell proliferation
same,proliferation,[5],induced the proliferation of prostate cancer cells
same,proliferation,[6],induced the proliferation of prostate cancer cells
same,proliferation,[7],either stimulated or not affected
same,proliferation,[8],either stimulated or not affected
same,proliferation,[9],either stimulated or not affected
same,apoptotic cell death (Annexin V assay),[10],stimulated apoptotic cell death
same,growth,[10],inhibited the growth
same,apoptotic cell death (Annexin V assay),[11],stimulated apoptotic cell death
same,growth,[11],inhibited the growth
same,apoptotic cell death (Annexin V assay),[12]; 4F-benzoyl-TN14003 4-20 μM,stimulate apoptotic cell death
same,growth,[12]; 4F-benzoyl-TN14003 4-20 μM,inhibit the growth
same,sensitivity of NB4 cells (inhibitory effect),[13]; compared with HL-60,less sensitive
same,apoptotic cell death (annexin assay),[14],stimulated apoptotic cell death
same,growth,[14],inhibited the growth
same,apoptotic cell death (annexin assay),[15],stimulated apoptotic cell death
same,growth,[15],inhibited the growth
same,apoptotic cell death (annexin assay),[16],stimulated apoptotic cell death
same,growth,[16],inhibited the growth
same,activity on migration of Jurkat cells in response to CXCL12 after treatment of the peptide with proteinease K,[17],abolished the activity of the peptide
same,apoptosis of CD138+ MM cells,"[18]; 8 μM, 24 hr",induced apoptosis
same,sensitivity of normal BM samples or BM samples with low percentage of MM cells,[18]; freshly isolated BM cells,not sensitive to treatment
same,sensitivity of BM derived samples with high percentage of MM,[18]; freshly isolated BM cells of MM patients,sensitive to treatment
same,percentage of CD34+ cells,[19],remained unaffected
same,tumor cell death of glioma cells,[20],induce tumor cell death
same,mice that developed smaller tumors in size and weight on day 31,[21]; 8 mg/Kg s.c. each day for 4 days,4/5
same,mice that developed a tumor on day 20,"[21]; 8 mg/Kg s.c. each day for 4 days, n=5, all control mice developed tumors",1
same,tumor growth,"[21]; established tumors 0.4 cm^2, 8 mg/Kg i.p., 9 injections",tumor growth was arrested
same,inhibition in K562L tumor development,"[22]; 2 mg/Kg i.p. days 2, 5, 7, 11, day 17, FIG. 21",> 90%
same,inhibition in K562L tumor development over time,"[22]; 4 mg/Kg i.p. every three days, FIG. 20",50%
Cc1ccc(NC(=O)c2ccc(CN3CCN(C)CC3)cc2)cc1Nc1nccc(-c2cccnc2)n1 [STI571],tumor development of K562L cells,"[22]; 40 mg/Kg IP, FIG. 20",inhibit tumor development
same,signal intensities over time,"[22]; 40 mg/Kg, FIG. 19",significant reduction in signal intensities
"CXCL12: chemokine, CXCR4's only natural ligand",proliferation and survival of keratinocytes,[3],not inhibited
same,proliferation and survival of CD4+ T cells,[4],induced T cell proliferation
same,proliferation,[5],induced the proliferation of prostate cancer cells
same,proliferation,[6],induced the proliferation of prostate cancer cells
same,proliferation,[7],either stimulated or not affected
same,proliferation,[8],either stimulated or not affected
same,proliferation,[9],either stimulated or not affected
same,CD34+ stem cell numbers,[23],did not affect cell numbers
"c1cc(CN2CCCNCCNCCCNCC2)ccc1CN1CCCNCCNCCCNCC1 [AMD-3100, reference compound]",proliferation and survival of keratinocytes,[3],not inhibited
same,proliferation and survival of CD4+ T cells,[4],not inhibited
same,proliferation,[5],induced the proliferation of prostate cancer cells
same,proliferation,[6],induced the proliferation of prostate cancer cells
same,proliferation,[7],either stimulated or not affected
same,proliferation,[8],either stimulated or not affected
same,proliferation,[9],either stimulated or not affected
same,effect of pretreatment with AMD-3100 on the effect of 4F-benzoyl-TN14003,[12]; AMD-3100 50 μM pretreatment,abolished the effect of 4F-benzoyl-TN14003
same,effect of pretreatment with AMD-3100 on the inhibitory effect of 4F-benzoyl-TN14003,[13]; NB4 cells,abolished
same,CD34+ stem cell numbers,[23],did not affect cell numbers

# — patent US8765683B2, “T-140 peptide analogs having CXCR4 super-agonist activity for cancer therapy” (Biokine Therapeutics Ltd., priority 2006, dated 2014)
